According to patent US20240401144A2, “PRIMER-PROBE COMPOSITION, KIT, AND DETECTION METHOD” (ASCENTAWITS PHARMACEUTICALS, LTD., priority 2021, published 2024):

What was measured:
THP-1 cell line = test: Ex vivo cytotoxicity assay, leukemia cell lines; format: cell-based; conditions: Homo sapiens; Table 5: THP-1, AML (pediatric), 72 h; AKR1C3 expression Low
Protocol: (§1) Leukemia cell lines were suspended in RPMI medium supplemented with FBS (Biosera), while ALL PDX cells were cultured in QBSF medium (Quality Biological Inc.,) supplemented with Flt-3 ligand (20 ng/ml, BioNovus Life Sciences) or IL7 (10-20 ng/ml, Jomar Life Research). Cells were inoculated according to the optimal cell density and incubated for 3h or overnight (37° C., 5% CO2). PDX cells and leukemia cell lines were treated with OBI-3424 ([…]) or medium control for 48 or 72 h, respectively. Viability was determined using Alamar Blue reduction assay or Cell Titer-Glo Luminescent Cell Viability Assay (Promega). The half-maximal inhibitory concentration (IC50) was used to calculate the interpolation of nonlinear regression curves by GraphPad Prism 7 software.
(§2) The expression levels of AKR1C3 protein was determined by Western blot analysis. The ex vivo cytotoxicity of OBI-3424 was determined using CellTiter-Glo assay and calculated as 50% maximum inhibitory concentration (IC50).

MOLT-4 cell line = test: Ex vivo cytotoxicity assay, leukemia cell lines; format: cell-based; conditions: Homo sapiens
Protocol: as §1, §2

P30/OHK cell line = test: Ex vivo cytotoxicity assay, leukemia cell lines; format: cell-based; conditions: Homo sapiens; Table 5: P30/OHK, T-ALL (pediatric), 72 h; AKR1C3 expression Low
Protocol: as §1, §2

Mono-Mac-6 cell line = test: Ex vivo cytotoxicity assay, leukemia cell lines; format: cell-based; conditions: Homo sapiens; Table 5: Mono-Mac-6, AML-M5, 72 h; AKR1C3 expression Low
Protocol: as §1, §2

Reh cell line = test: Ex vivo cytotoxicity assay, leukemia cell lines; format: cell-based; conditions: Homo sapiens
Protocol: as §1, §2

Jurkat cell line = test: Ex vivo cytotoxicity assay, leukemia cell lines; format: cell-based; conditions: Homo sapiens
Protocol: as §1, §2

SUP-T1 cell line = test: Ex vivo cytotoxicity assay, leukemia cell lines; format: cell-based; conditions: Homo sapiens
Protocol: as §1, §2

TF-1 cell line = test: Ex vivo cytotoxicity assay, leukemia cell lines; format: cell-based; conditions: Homo sapiens; Table 5: TF-1, Erythroleukemia, 72 h; AKR1C3 expression Medium
Protocol: as §1, §2

[1] = system: HL-60, clone 15 cell line; test: Ex vivo cytotoxicity assay, leukemia cell lines; format: cell-based; conditions: Homo sapiens; Table 5: HL-60, clone 15, APL, 72 h; AKR1C3 expression Low
Protocol: as §1, §2

GR-ST cell line = test: Ex vivo cytotoxicity assay, leukemia cell lines; format: cell-based; conditions: Homo sapiens, B-ALL (transfected with G-CSF)
Protocol: as §1, §2

PF-382 cell line = test: Ex vivo cytotoxicity assay, leukemia cell lines; format: cell-based; conditions: Homo sapiens
Protocol: as §1, §2

TALL-1 cell line = test: Ex vivo cytotoxicity assay, leukemia cell lines; format: cell-based; conditions: Homo sapiens
Protocol: as §1, §2

NOMO-1 cell line = test: Ex vivo cytotoxicity assay, leukemia cell lines; format: cell-based; conditions: Homo sapiens, AKR1C3 expression Medium
Protocol: as §1, §2

K-562 cell line = test: Ex vivo cytotoxicity assay, leukemia cell lines; format: cell-based; conditions: Homo sapiens, K562; Table 5: K-562, CML, 72 h; AKR1C3 expression Low
Protocol: as §1, §2

P116 cell line = test: Ex vivo cytotoxicity assay, leukemia cell lines; format: cell-based; conditions: Homo sapiens
Protocol: as §1, §2

KG-1 cell line = test: Ex vivo cytotoxicity assay, leukemia cell lines; format: cell-based; conditions: Homo sapiens; Table 5: KG-1, Erythroleukemia, 72 h; AKR1C3 expression High
Protocol: as §1, §2

Kasumi-1 cell line = test: Ex vivo cytotoxicity assay, leukemia cell lines; format: cell-based; conditions: Homo sapiens; Table 5: Kasumi-1, AML, 72 h; AKR1C3 expression Low
Protocol: as §1, §2

CCRF-CEM cell line = test: Ex vivo cytotoxicity assay, leukemia cell lines; format: cell-based; conditions: Homo sapiens
Protocol: as §1, §2

[2] = system: hepatocellular carcinoma cell lines; test: Ex vivo proliferation assay, group of hepatocellular carcinoma cell lines (summary); format: cell-based, human
Protocol: Exponentially growing cells were inoculated. After 24 h, the test compound OBI-3424 was added. After addition of the test compound OBI-3424, plates were incubated in a standard tissue incubator at 37° C. for the indicated hours. At the end of the experiment, viable cells were detected using the CellTiter Glo (CTG) assay kit or AlamarBlue. Drug concentrations (IC50) resulting in 50% growth inhibition relative to untreated control were calculated using XLfit (IDBS, Boston, MA) or Prism 6 (GraphPad, San Diego, CA).
After exposing the hepatocellular carcinoma cell lines to compound OBI-3424 for 96 h and exposing the NSCLC cell lines to compound OBI-3424 for 72 h, the IC50 value was determined by ex vivo proliferation assay, and the expression of AKR1C3 protein in hepatocellular carcinoma cell lines was determined by Western blotting (tubulin was used as loading control). The expression data of AKR1C3 RNA in the hepatocellular carcinoma cell lines and in the NSCLC cell lines were from CrownBio database (https://db.crownbio.com/Crownbio/OncoExpress_Login.aspx).
On the other hand, cells expressing low AKR1C3 were less sensitive to OBI-3424, where IC50 values were higher than 1000 nM.

- IC50 ([2]; Homo sapiens, cells expressing low AKR1C3): > 1000 nM
- IC50 values ([2]; hepatocellular carcinoma cell lines with high AKR1C3 expression at both protein and RNA levels): low nanomolar range
SMILES: C[C@H](OP(=O)(N1CC1)N1CC1)c1ccc([N+](=O)[O-])c(Oc2cccc(C(=O)N(C)C)c2)c1 [OBI-3424]
- IC50 (THP-1 cell line): > 1000 nM
- IC50 (MOLT-4 cell line; Table 4: MOLT-4, T-ALL, AKR1C3 expression Strong, CellTiter-Glo): 10 nM
- IC50 (MOLT-4 cell line; Table 5: MOLT-4, T-ALL, 72 h, AKR1C3 expression Medium): 10 nM
- IC50 (P30/OHK cell line): > 1000 nM
- IC50 (Mono-Mac-6 cell line): 29.8 nM
- IC50 (Reh cell line; Table 4: Reh, BCP-ALL, AKR1C3 expression Medium, CellTiter-Glo): 3 nM
- IC50 (Reh cell line; Table 5: Reh, ALL (non-T, non-B), 72 h, AKR1C3 expression Low): 3 nM
- IC50 (Jurkat cell line; Table 4: Jurkat, T-ALL (child), AKR1C3 expression Medium, CellTiter-Glo): 40 nM
- IC50 (Jurkat cell line; Table 5: Jurkat, T-ALL (pediatric), 72 h, AKR1C3 expression Low): 40 nM
- IC50 (SUP-T1 cell line; Table 4: SUP-T1, T-ALL (child), AKR1C3 expression Strong, CellTiter-Glo): 3 nM
- IC50 (SUP-T1 cell line; Table 5: SUP-T1, T-ALL (pediatric), 72 h, AKR1C3 expression Medium): 3 nM
- IC50 (TF-1 cell line): 2.8 nM
- IC50 [1]: 87 nM
- IC50 (GR-ST cell line; Table 4: GR-ST, AKR1C3 expression Strong, CellTiter-Glo): 9.9 nM
- IC50 (GR-ST cell line; Table 5: GR-ST, 72 h, AKR1C3 expression Medium): 9.9 nM
- IC50 (PF-382 cell line; Table 4: PF-382, T-ALL (child), AKR1C3 expression Strong, CellTiter-Glo): 15 nM
- IC50 (PF-382 cell line; Table 5: PF-382, T-ALL (pediatric), 72 h, AKR1C3 expression Medium): 15 nM
- IC50 (TALL-1 cell line; Table 4: TALL-1, T-ALL (child), AKR1C3 expression Strong, CellTiter-Glo): 30 nM
- IC50 (TALL-1 cell line; Table 5: TALL-1, T-ALL (pediatric), 72 h, AKR1C3 expression Medium): 30 nM
- IC50 (NOMO-1 cell line; Table 4: NOMO-1, AML (acute monocytic), CellTiter-Glo): 11 nM
- IC50 (NOMO-1 cell line; Table 5: NOMO-1, T-ALL (adult), 72 h): 11 nM
- IC50 (K-562 cell line): > 1000 nM
- IC50 (P116 cell line; Table 4: P116, T-ALL (Jurkat mutant), AKR1C3 expression Medium, CellTiter-Glo): 84 nM
- IC50 (P116 cell line; Table 5: P116, Jurkat mutant, 72 h, AKR1C3 expression Low): 84 nM
- IC50 (KG-1 cell line): 153 nM
- IC50 (Kasumi-1 cell line): > 1000 nM
- IC50 (CCRF-CEM cell line; Table 4: CCRF-CEM, T-ALL (child), AKR1C3 expression Strong, CellTiter-Glo): 3.7 nM
- IC50 (CCRF-CEM cell line; Table 5: CCRF-CEM, T-ALL, 72 h, AKR1C3 expression High): 3.7 nM
